Measured values from article PMC9951879, “Synthesis of New Shogaol Analogues as NRF2 Activators and Evaluation of Their Anti-Inflammatory Activity, Modes of Action and Metabolic Stability” (Antioxidants, 2023).
Where two headings read alike, the source gives them in different places.

How the values were obtained:
[1] = Liver microsomal stability, rat; format: in vitro ADME; conditions: rat liver microsomes, 1 μM (verapamil 0.5 μM)
Description: (§1) The liver microsomes of humans, rats, and mice were purchased from Merck (human, #M0567; rat, #M9066; mouse, #M9441). The metabolic stability of 6-shogaol and STCs (1 μM effective concentration; 5 μL) was mixed with liver microsomes (0.5 mg mL^−1; 445 μL) in a microcentrifuge tube. Verapamil (0.5 μM) was used as the positive control. The microsome and compound mixture were shaken on a plate shaker for 5 min to ensure homogeneity. NADPH (1 mM; 50 μL) was added to the mixture to start the metabolic reaction. The reaction mixture was incubated at 37 °C for 0, 3, 6, 15, 30, 45, and 60 min. The mixture (20 μL) was sampled and quenched with 180 μL of acetonitrile with internal standard (Donepezil 50 ng/mL) to terminate the metabolic reaction at each time point. Ultrapure water (80 μL) was added, and contents in the microcentrifuge tubes were centrifuged at 3800 rpm at 4 °C for 10 min. […] Each set of experiments was repeated three times in human, rat, and mouse liver microsomes. The concentration of the compounds versus time was plotted to determine the elimination rate constant (Kel). The intrinsic clearance (Clint) and half-life (t1/2) were calculated using the following equations.

[2] = Liver microsomal stability, human; format: in vitro ADME; conditions: for Clint / half-life at 1 μM: human liver microsomes, 1 μM (verapamil 0.5 μM)
Description: as §1

[3] = system: NAD(P)H quinone oxidoreductase 1 (NQO1); experiment: Prochaska microtiter plate bioassay, NQO1 induction in Hepa-1c1c7 cells; format: cell-based, mouse
Description: The effect of shogaol thiophene compounds (STCs) on NRF2 activation is determined by measuring the NAD(P)H quinone oxidoreductase 1 (NQO1) inducer activity, as reported in our previous studies. The mouse hepatoma cells (Hepa-1c1c7, 1 × 10^4 per well) were incubated with STCs (10, 1, 0.1, 0.01, and 0.001 µM) for 48 h. The cells were lysed using digitonin (0.8 mg/mL and 2 mM EDTA; Acros, UK), and the protein concentration was determined using Bradford’s assay kit (Thermo Fisher Scientific, USA). The cell lysate was incubated with a reaction mixture of 0.5 M Tris-Cl buffer (Calbiochem, USA), 7.5 mM FAD (Acros, UK), 150 mM glucose-6-phosphate (Calbiochem, San Diego, CA, USA), 2 U/mL glucose-6-phosphate dehydrogenase (Calbiochem, USA), 50 mM NADP+ (Sigma Aldrich, USA), 25 mM menadione (Sigma Aldrich, USA), and 0.7 mM MTT (Sigma Aldrich, USA) at 37 °C for 5 min. The absorbance was recorded at 610 nm using a microplate reader (Spectramax M3, Molecular Devices, San Jose, CA, USA), and the values were normalised to the total protein content.

[4] = biological target: T1, KEAP1-NRF2 interaction (Homo sapiens, UniProt Q14145); experiment: KEAP1-Nrf2 inhibitor screening, fluorescence polarisation assay; format: binding; conditions: KEAP1 Kelch domain, read-out: IC50, NRF2-KEAP1 inhibition
T1 construct: purchased BPS Bioscience
Description: The KEAP1-Nrf2 inhibitor screening assay kit (BPS Bioscience, San Diego, California, USA) was used to determine the effect of STCs in inhibiting KEAP1-NRF2 interaction following the manufacturer’s protocol and our reported method. The STC solutions were diluted with the assay buffer, and 5 μL of the STC solutions were incubated at room temperature for 30 min in the peptide mixture containing 0.5 μL NRF2 peptide (1 μM) and 20 μL KEAP1 (15 ng/μL). The fluorescence polarisation (FP) was measured using a microplate reader at λex 485 nm and λem 530 nm. The following equation was used to determine the per cent KEAP1-NRF2 inhibitory effect of the STCs. Keap1−Nrf2 inhbitory activity %=1−Relative FP of STC/Relative FP of postive control×100

[5] = system: nitric oxide (NO); experiment: Nitric oxide (Griess) in LPSEc-stimulated BV-2 cells; format: cell-based, mouse; conditions: LPSEc 200 ng/mL; for NO production: 1 μM; for inhibition at 1 µM: Mus musculus, BV-2, 1 μM, read-out: percentage of NO inhibition
Description: (§2) The anti-inflammatory activity of the STCs was determined in E. coli lipopolysaccharide (LPSEc; Sigma Aldrich, USA)-induced inflammation in NRF2-proficient and NRF2 siRNA-transfected mouse microglial (BV-2) cells. The NRF2 was silenced in BV-2 cells using NRF2 siRNA (Santa Cruz Biotechnology, Dallas, TX, USA) in Opti-MEM transfection medium (Thermo Fisher Scientific, USA) using Lipofectamine^TM LTX reagent with PLUS^TM reagent (Thermo Fisher Scientific, USA) following the manufacturer’s protocol and reported method. The cells (5 × 10^5 cells/well) were allowed to form a monolayer by incubating them for 24 h and then adding LPSEc (200 ng/mL) for 4 h. The STCs (1 µM) were then added and incubated for another 20 h. The nitric oxide (NO) level in cell supernatant was determined using the Griess reagent kit (Thermo Fisher Scientific, USA). The levels of proinflammatory cytokines (IL-1β, IL-6, IFN-γ, and TNF-α) in cell supernatant solutions were determined using commercially available ELISA kits (Abcam, Cambridge, UK). The cell pellets were lysed using Cell Lysis buffer (Thermo Fisher Scientific, Waltham, MA, USA) following the manufacturer’s instructions. The supernatant solution in the wells was replaced with PBS, and cells were detached by scraping, washed with PBS, and centrifuged to collect the cell pellet. The cell pellet was lysed on ice in a cell lysis buffer for half an hour, vortexing at regular intervals. The cell lysate was centrifuged at 15,000 rpm for 15 min at 4 °C. The clear lysate was stored at −80 °C until further use. The protein concentration was determined using Bradford’s assay kit (Thermo Fisher Scientific, USA) following the manufacturer’s instructions. The expression of COX-2, NF-κB p65, NRF2, and HO-1 in cell lysates was determined using commercially available ELISA kits (Abcam, St, Louis, Missouri, USA) following the manufacturer’s protocol. In addition, the thiol content was determined using a thiol quantification assay kit (Abcam, USA).

[6] = system: IFN-γ; experiment: IFN-γ ELISA in LPSEc-stimulated BV-2 cells; format: cell-based, mouse; conditions: LPSEc 200 ng/mL; for IFN-γ level: 1 μM; for inhibition at 1 µM: Mus musculus, BV-2, 1 μM, read-out: percentage of IFN-γ inhibition
Description: as §2

[7] = system: NF-κB p65; experiment: NF-κB p65 ELISA in LPSEc-stimulated BV-2 cell lysates; format: cell-based, mouse; conditions: LPSEc 200 ng/mL; for NF-κB p65 level: 1 μM; for inhibition at 1 µM: Mus musculus, BV-2, 1 μM, read-out: percent NF-κB inhibition
Description: as §2

[8] = system: IL-1β; experiment: IL-1β ELISA in LPSEc-stimulated BV-2 cells; format: cell-based, mouse; conditions: LPSEc 200 ng/mL; for IL-1β level: 1 μM; for inhibition at 1 µM: Mus musculus, BV-2, 1 μM, read-out: percentage of IL-1β inhibition
Description: as §2

[9] = Liver microsomal stability, mouse; format: in vitro ADME; conditions: mouse liver microsomes, 1 μM (verapamil 0.5 μM)
Description: as §1

[10] = system: COX-2; experiment: COX-2 ELISA in LPSEc-stimulated BV-2 cell lysates; format: cell-based, mouse; conditions: LPSEc 200 ng/mL; for COX-2 level: 1 μM; for inhibition at 1 µM: Mus musculus, BV-2, 1 μM, read-out: percentage of COX-2 inhibition
Description: as §2

T1 sequence (Q14145 2-624 limits assumed): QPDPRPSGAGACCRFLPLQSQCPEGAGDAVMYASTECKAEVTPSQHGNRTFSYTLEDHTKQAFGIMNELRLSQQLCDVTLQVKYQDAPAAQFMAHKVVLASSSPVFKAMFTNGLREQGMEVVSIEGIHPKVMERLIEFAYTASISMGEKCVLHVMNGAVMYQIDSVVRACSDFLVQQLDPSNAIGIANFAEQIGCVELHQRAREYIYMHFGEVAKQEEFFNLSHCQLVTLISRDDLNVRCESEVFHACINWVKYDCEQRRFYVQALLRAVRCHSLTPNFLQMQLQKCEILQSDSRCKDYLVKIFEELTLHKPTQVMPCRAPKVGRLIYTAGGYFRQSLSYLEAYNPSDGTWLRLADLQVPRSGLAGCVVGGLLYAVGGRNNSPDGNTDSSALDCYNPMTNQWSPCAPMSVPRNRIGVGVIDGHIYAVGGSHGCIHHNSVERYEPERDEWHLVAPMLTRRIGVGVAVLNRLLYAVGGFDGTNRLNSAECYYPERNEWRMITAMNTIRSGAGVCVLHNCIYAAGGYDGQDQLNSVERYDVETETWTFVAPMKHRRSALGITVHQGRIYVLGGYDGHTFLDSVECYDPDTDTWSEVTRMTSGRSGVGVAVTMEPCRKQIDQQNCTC

Row | Clint [1] [mL/min/g liver] | half-life at 1 μM [1] [min] | Clint [2] [mL/min/g liver] | half-life at 1 μM [2] [min] | IC50 [4] [nM] | Clint [9] [mL/min/g liver] | half-life at 1 μM [9] [min] | Structure (SMILES) | concentration toxic to the cells in the NQO1 assay ([3]; Hepa-1c1c7 cells) | NO production ([5]; NRF2-proficient BV-2 cells) [µM] | NO production ([5]; NRF2-silenced BV-2 cells) [µM] | IFN-γ level ([6]; NRF2-proficient BV-2 cells) [pg/mL] | IFN-γ level ([6]; NRF2-silenced BV-2 cells) [pg/mL] | NF-κB p65 level ([7]; NRF2-proficient BV-2 cells) [ng/mL] | NF-κB p65 level ([7]; NRF2-silenced BV-2 cells) [ng/mL] | IL-1β level ([8]; NRF2-proficient BV-2 cells) [pg/mL] | IL-1β level ([8]; NRF2-silenced BV-2 cells) [pg/mL] | COX-2 level ([10]; NRF2-proficient BV-2 cells) [ng/mL] | COX-2 level ([10]; NRF2-silenced BV-2 cells) [ng/mL] | inhibition at 1 µM ([5]; NRF2-proficient BV-2 cells) [%] | inhibition at 1 µM ([5]; NRF2-silenced BV-2 cells) [%] | also measured
1 | 10.57 ± 1.48 | 6.88 | 6.95 ± 1.52 | 10.5 | 900 ± 50 | 11.26 ± 2.69 | 6.46 | COc1cc(CCC(=O)/C=C/c2ccc([N+](=O)[O-])s2)ccc1O [STC8, (E)-5-(4-Hydroxy-3-methoxyphenyl)-1-(5-nitrothiophen-2-yl)pent-1-en-3-one] | greater than 1 μM | 6.38 ± 0.04 | 8.86 ± 0.38 | 24.63 ± 0.64 | 37.86 ± 1.69 | 75.6 ± 5.04 | 131.57 ± 0.15 | 39.93 ± 0.74 | 77.33 ± 0.93 | 4.10 ± 0.10 | 4.47 ± 0.15 |  |  | CD (concentration required to double the NQO1 level) ([3]; Hepa-1c1c7 cells, 48 h): did not show the CD value
2 | 11.51 ± 1.37 | 6.32 | 7.56 ± 1.24 | 9.63 | 830 ± 100 | 14.32 ± 1.51 | 5.08 | CCCCC/C=C/C(=O)CCc1ccc(O)c(OC)c1 [6-shogaol, reference compound] | 10 µM | 6.32 ± 0.03 | 8.56 ± 0.36 | 25.75 ± 0.72 | 37.52 ± 1.01 | 70.54 ± 5.04 | 132.17 ± 4.52 | 43.30 ± 0.62 | 88.57 ± 0.55 | 4.30 ± 0.10 | 6.03 ± 0.21 | 40 | 24.7 | EC (2-fold NQO1 induction) ([3]; Mus musculus, Hepa-1c1c7, 48 h, Hepa-1c1c7 cells, 48 h, read-out: CD (concentration required to double the NQO1 level)): 4.12 ± 0.52 µM; inhibition at 1 µM ([6]; NRF2-proficient BV-2 cells): 36.3%; inhibition at 1 µM ([6]; NRF2-silenced BV-2 cells): 10.5%; inhibition at 1 µM ([7]; NRF2-proficient BV-2 cells): 44%; inhibition at 1 µM ([7]; NRF2-silenced BV-2 cells): 4.61%; inhibition at 1 µM ([8]; NRF2-proficient BV-2 cells): 53.7%; inhibition at 1 µM ([8]; NRF2-silenced BV-2 cells): 5%; inhibition at 1 µM ([10]; NRF2-proficient BV-2 cells): 35.5%; inhibition at 1 µM ([10]; NRF2-silenced BV-2 cells): 11.7%
3 | 7.22 ± 1.23 | 10.1 | 5.09 ± 0.98 | 14.3 | 40 ± 1 | 6.42 ± 1.52 | 11.3 | COc1cc(CCC(=O)/C=C/c2cc(-c3ccccc3)cs2)ccc1O [STC5, (E)-5-(4-Hydroxy-3-methoxyphenyl)-1-(4-phenylthiophen-2-yl)pent-1-en-3-one] |  | 2.58 ± 0.04 |  | 14.34 ± 1.10 | 31.19 ± 0.85 | 41.5 ± 0.79 | 86.3 ± 1.03 |  | 72.50 ± 1.32 |  | 3.48 ± 0.09 | 75.5 | 64.8 | half-life in liver microsomes, times longer than that of 6-shogaol ([2]; liver microsomes, species not stated, versus 6-shogaol): about 1.5 times; times more potent than 6-shogaol (NRF2 activation) ([3]; versus 6-shogaol): 65 times; inhibition at 1 µM ([6]; NRF2-proficient BV-2 cells): 42.7%; inhibition at 1 µM ([6]; NRF2-silenced BV-2 cells): 25.6%; inhibition at 1 µM ([7]; NRF2-proficient BV-2 cells): 67.1%; inhibition at 1 µM ([7]; NRF2-silenced BV-2 cells): 37.7%; inhibition at 1 µM ([8]; NRF2-proficient BV-2 cells): 71.4%; inhibition at 1 µM ([8]; NRF2-silenced BV-2 cells): 22.3%; inhibition at 1 µM ([10]; NRF2-proficient BV-2 cells): 76%; inhibition at 1 µM ([10]; NRF2-silenced BV-2 cells): 49.1%
